Assay results published in ChEMBL document CHEMBL5321283, “Structure-Activity Relationships of the Antimicrobial Peptide Natural Product Apidaecin” (J Med Chem, 2023).
Values after ≈ are worked out from the molar mass of the structure shown. *1 amine or outer side, *2 acyl side, *3 side chain or, on linkers, in order; H or OH if unused. Where a SMILES comes first, the peptide text is derived from it. [ ]: non-standard residue; d: D form. The star is where a group is joined. Orn(α-tetramethylguanidino) = CN(C)C(=N[C@@H](CCCN)C(=O)*)N(C)C; X1 = N=C(N)NCCC[C@H](NC(=S)[C@@H]1CCCN1[*:1])C(=O)[*:2]; X3 = O=C([C@@H]1CCCN1C(=S)[C@@H]1CCCN1[*:1])[*:2]; Phe(4-F) = N[C@@H](Cc1ccc(F)cc1)C(=O)O; 2Nal = N[C@@H](Cc1ccc2ccccc2c1)C(=O)O; Hyp = O=C(O)[C@@H]1C[C@@H](O)CN1; dLeu(ol) = CC(C)C[C@@H](N)CO; Leu(ol) = CC(C)C[C@H](N)CO; NHIsopentyl = CC(C)CCN*

What was measured:
Escherichia coli [1] = experiment: Potency index, ratio of Api-137 MIC to test compound MIC for antibacterial activity against Escherichia coli BL21 assessed as bacterial growth inhibition by broth microdilution assay; format: functional
Escherichia coli [2] = experiment: Antibacterial activity against Escherichia coli BL21 assessed as bacterial growth inhibition by broth microdilution assay; format: functional

CC[C@H](C)[C@H](NC(=O)[C@H](Cc1ccc(O)cc1)NC(=O)[C@@H](NC(=O)[C@@H]1CCCN1C(=O)[C@H](CCCNC(=N)N)NC(=O)[C@H](CC(N)=O)NC(=O)[C@H](CC(N)=O)NC(=O)[C@H](CCCN)N=C(N(C)C)N(C)C)C(C)C)C(=O)N1CCC[C@H]1C(=O)N[C@@H](CCCNC(=N)N)C(=O)N1CCC[C@H]1C(=O)N[C@@H](CCCNC(=N)N)C(=O)N1CCC[C@H]1C(=O)N1C[C@H](O)C[C@H]1C(=O)N[C@@H](Cc1c[nH]cn1)C(=O)N1CCC[C@H]1C(=O)N[C@@H](CCCNC(=N)N)C(=O)N[C@@H](CC(C)C)C(=O)O ({Orn(α-tetramethylguanidino)}-NNRPVYIPRPRP[Hyp]HPRL-OH)
Ratio (Escherichia coli [1]): 2 | MIC (Escherichia coli [2]): 0.6 µM (≈ 1.38 µg/mL)

CC[C@H](C)[C@H](NC(=O)[C@H](Cc1ccc(O)cc1)NC(=O)[C@@H](NC(=O)[C@@H]1CCCN1C(=O)[C@H](CCCNC(=N)N)NC(=O)[C@H](CC(N)=O)NC(=O)[C@H](CC(N)=O)NC(=O)[C@H](CCCN)N=C(N(C)C)N(C)C)C(C)C)C(=O)N1CCC[C@H]1C(=O)N[C@@H](CCCNC(=N)N)C(=O)N1CCC[C@H]1C(=O)N[C@@H](CCCNC(=N)N)C(=O)N1CCC[C@H]1C(=O)N1CCC[C@H]1C(=O)N[C@@H](Cc1c[nH]cn1)C(=O)N1CCC[C@H]1C(=O)N[C@@H](CCCNC(=N)N)C(=O)N[C@@H](CO)CC(C)C ({Orn(α-tetramethylguanidino)}-NNRPVYIPRPRPPHPR[dLeu(ol)])
Ratio (Escherichia coli [1]): 62 | MIC (Escherichia coli [2]): 10 µM (≈ 22.8 µg/mL)

CC[C@H](C)[C@H](NC(=O)[C@H](Cc1ccc(O)cc1)NC(=O)[C@@H](NC(=O)[C@@H]1CCCN1C(=O)[C@H](CCCNC(=N)N)NC(=O)[C@H](CC(N)=O)NC(=O)[C@H](CC(N)=O)NC(=O)[C@H](CCCN)N=C(N(C)C)N(C)C)C(C)C)C(=O)N1CCC[C@H]1C(=O)N[C@@H](CCCNC(=N)N)C(=O)N1C[C@H](O)C[C@H]1C(=O)N[C@@H](CCCNC(=N)N)C(=O)N1CCC[C@H]1C(=O)N1CCC[C@H]1C(=O)N[C@@H](Cc1c[nH]cn1)C(=O)N1CCC[C@H]1C(=O)N[C@@H](CCCNC(=N)N)C(=O)N[C@@H](CC(C)C)C(=O)O ({Orn(α-tetramethylguanidino)}-NNRPVYIPR[Hyp]RPPHPRL-OH)
Ratio (Escherichia coli [1]): 4 | MIC (Escherichia coli [2]): 1.2 µM (≈ 2.77 µg/mL)

CC[C@H](C)[C@H](NC(=O)[C@H](Cc1ccc(F)cc1)NC(=O)[C@@H](NC(=O)[C@@H]1CCCN1C(=O)[C@H](CCCNC(=N)N)NC(=O)[C@H](CC(N)=O)NC(=O)[C@H](CC(N)=O)NC(=O)[C@H](CCCN)N=C(N(C)C)N(C)C)C(C)C)C(=O)N1CCC[C@H]1C(=O)N[C@@H](CCCNC(=N)N)C(=O)N1CCC[C@H]1C(=O)N[C@@H](CCCNC(=N)N)C(=O)N1CCC[C@H]1C(=O)N1CCC[C@H]1C(=O)N[C@@H](Cc1c[nH]cn1)C(=O)N1CCC[C@H]1C(=O)N[C@@H](CCCNC(=N)N)C(=O)N[C@@H](CC(C)C)C(=O)O ({Orn(α-tetramethylguanidino)}-NNRPV[Phe(4-F)]IPRPRPPHPRL-OH)
Ratio (Escherichia coli [1]): 1 | MIC (Escherichia coli [2]): 0.35 µM (≈ 0.803 µg/mL)

CC[C@H](C)[C@H](NC(=O)[C@H](Cc1ccc(O)cc1)NC(=O)[C@@H](NC(=O)[C@@H]1CCCN1C(=O)[C@H](CCCNC(=N)N)NC(=O)[C@H](CC(N)=O)NC(=O)[C@H](CC(N)=O)NC(=O)[C@H](CCCN)N=C(N(C)C)N(C)C)C(C)C)C(=O)N1CCC[C@H]1C(=O)N[C@@H](CCCNC(=N)N)C(=O)N1CCC[C@H]1C(=O)N[C@@H](CCCNC(=N)N)C(=O)N1CCC[C@H]1C(=O)N1CCC[C@H]1C(=O)N[C@@H](Cc1c[nH]cn1)C(=O)N1CCC[C@H]1C(=O)N[C@@H](CCCNC(=N)N)C(=O)NCCC(C)C ({Orn(α-tetramethylguanidino)}-NNRPVYIPRPRPPHPR-NHIsopentyl)
Ratio (Escherichia coli [1]): >800 | MIC (Escherichia coli [2]): > 40 µM

CC[C@H](C)[C@H](NC(=O)[C@H](Cc1ccc(O)cc1)NC(=O)[C@@H](NC(=O)[C@@H]1CCCN1C(=O)[C@H](CCCNC(=N)N)NC(=O)[C@H](CC(N)=O)NC(=O)[C@H](CC(N)=O)NC(=O)[C@H](CCCN)N=C(N(C)C)N(C)C)C(C)C)C(=O)N1CCC[C@H]1C(=O)N[C@@H](CCCNC(=N)N)C(=O)N1CCC[C@H]1C(=O)N[C@@H](CCCNC(=N)N)C(=O)N1CCC[C@H]1C(=O)N1CCC[C@H]1C(=O)N[C@@H](Cc1c[nH]cn1)C(=O)N1CCC[C@H]1C(=O)N[C@@H](CCCNC(=N)N)C(=O)N[C@H](CO)CC(C)C ({Orn(α-tetramethylguanidino)}-NNRPVYIPRPRPPHPR[Leu(ol)])
Ratio (Escherichia coli [1]): 32 | MIC (Escherichia coli [2]): 5 µM (≈ 11.4 µg/mL)

CC[C@H](C)[C@H](NC(=O)[C@H](Cc1ccc(O)cc1)NC(=O)[C@@H](NC(=O)[C@@H]1CCCN1C(=O)[C@H](CCCNC(=N)N)NC(=O)[C@H](CC(N)=O)NC(=O)[C@H](CC(N)=O)NC(=O)[C@H](CCCN)N=C(N(C)C)N(C)C)C(C)C)C(=O)N1CCC[C@H]1C(=O)N[C@@H](CCCNC(=N)N)C(=O)N1CCC[C@H]1C(=O)N[C@@H](CCCNC(=N)N)C(=O)N1CCC[C@H]1C(=O)N1CCC[C@H]1C(=O)N[C@@H](Cc1ccc2ccccc2c1)C(=O)N1CCC[C@H]1C(=O)N[C@@H](CCCNC(=N)N)C(=O)N[C@@H](CC(C)C)C(=O)O ({Orn(α-tetramethylguanidino)}-NNRPVYIPRPRPP[2Nal]PRL-OH)
Ratio (Escherichia coli [1]): 63 | MIC (Escherichia coli [2]): 10 µM (≈ 23.5 µg/mL)

CC[C@H](C)[C@H](NC(=O)[C@H](Cc1ccc(O)cc1)NC(=O)[C@@H](NC(=O)[C@@H]1CCCN1C(=O)[C@H](CCCNC(=N)N)NC(=O)[C@H](CC(N)=O)NC(=O)[C@H](CC(N)=O)NC(=O)[C@H](CCCN)N=C(N(C)C)N(C)C)C(C)C)C(=O)N1CCC[C@H]1C(=O)N[C@@H](CCCNC(=N)N)C(=O)N1CCC[C@H]1C(=O)N[C@@H](CCCNC(=N)N)C(=O)N1CCC[C@H]1C(=S)N1CCC[C@H]1C(=O)N[C@@H](Cc1c[nH]cn1)C(=O)N1CCC[C@H]1C(=O)N[C@@H](CCCNC(=N)N)C(=O)N[C@@H](CC(C)C)C(=O)O ({Orn(α-tetramethylguanidino)}-NNRPVYIPRPR[X3]HPRL-OH)
Ratio (Escherichia coli [1]): 4 | MIC (Escherichia coli [2]): 0.62 µM (≈ 1.43 µg/mL)

CC[C@H](C)[C@H](NC(=O)[C@H](Cc1ccc(O)cc1)NC(=O)[C@@H](NC(=O)[C@@H]1CCCN1C(=O)[C@H](CCCNC(=N)N)NC(=O)[C@H](CC(N)=O)NC(=O)[C@H](CC(N)=O)NC(=O)[C@H](CCCN)N=C(N(C)C)N(C)C)C(C)C)C(=O)N1CCC[C@H]1C(=O)N[C@@H](CCCNC(=N)N)C(=O)N1CCC[C@H]1C(=O)N[C@@H](CCCNC(=N)N)C(=O)N1CCC[C@H]1C(=O)N1CCC[C@H]1C(=O)N[C@@H](Cc1c[nH]c2ccccc12)C(=O)N1CCC[C@H]1C(=O)N[C@@H](CCCNC(=N)N)C(=O)N[C@@H](CC(C)C)C(=O)O ({Orn(α-tetramethylguanidino)}-NNRPVYIPRPRPPWPRL-OH)
Ratio (Escherichia coli [1]): 8 | MIC (Escherichia coli [2]): 1.2 µM (≈ 2.81 µg/mL)

CC[C@H](C)[C@H](NC(=O)[C@H](Cc1ccc(O)cc1)NC(=O)[C@@H](NC(=O)[C@@H]1C[C@@H](O)CN1C(=O)[C@H](CCCNC(=N)N)NC(=O)[C@H](CC(N)=O)NC(=O)[C@H](CC(N)=O)NC(=O)[C@H](CCCN)N=C(N(C)C)N(C)C)C(C)C)C(=O)N1CCC[C@H]1C(=O)N[C@@H](CCCNC(=N)N)C(=O)N1CCC[C@H]1C(=O)N[C@@H](CCCNC(=N)N)C(=O)N1CCC[C@H]1C(=O)N1CCC[C@H]1C(=O)N[C@@H](Cc1c[nH]cn1)C(=O)N1CCC[C@H]1C(=O)N[C@@H](CCCNC(=N)N)C(=O)N[C@@H](CC(C)C)C(=O)O ({Orn(α-tetramethylguanidino)}-NNR[Hyp]VYIPRPRPPHPRL-OH)
Ratio (Escherichia coli [1]): 1 | MIC (Escherichia coli [2]): 0.08 µM (≈ 0.185 µg/mL)

CC[C@H](C)[C@H](NC(=O)[C@H](Cc1ccc(O)cc1)NC(=O)[C@@H](NC(=O)[C@@H]1CCCN1C(=O)[C@H](CCCNC(=N)N)NC(=O)[C@H](CC(N)=O)NC(=O)[C@H](CC(N)=O)NC(=O)[C@H](CCCN)N=C(N(C)C)N(C)C)C(C)C)C(=O)N1CCC[C@H]1C(=O)N[C@@H](CCCNC(=N)N)C(=O)N1CCC[C@H]1C(=S)N[C@@H](CCCNC(=N)N)C(=O)N1CCC[C@H]1C(=O)N1CCC[C@H]1C(=O)N[C@@H](Cc1c[nH]cn1)C(=O)N1CCC[C@H]1C(=O)N[C@@H](CCCNC(=N)N)C(=O)N[C@@H](CC(C)C)C(=O)O ({Orn(α-tetramethylguanidino)}-NNRPVYIPR[X1]PPHPRL-OH)
Ratio (Escherichia coli [1]): 4 | MIC (Escherichia coli [2]): 0.62 µM (≈ 1.43 µg/mL)

CC[C@H](C)[C@H](NC(=O)[C@H](Cc1ccc(O)cc1)NC(=O)[C@@H](NC(=O)[C@@H]1CCCN1C(=O)[C@H](CCCNC(=N)N)NC(=O)[C@H](CC(N)=O)NC(=O)[C@H](CC(N)=O)NC(=O)[C@H](CCCN)N=C(N(C)C)N(C)C)C(C)C)C(=O)N1CCC[C@H]1C(=O)N[C@@H](CCCNC(=N)N)C(=O)N1CCC[C@H]1C(=O)N[C@@H](CCCNC(=N)N)C(=O)N1CCC[C@H]1C(=O)N1CCC[C@H]1C(=O)N[C@@H](Cc1c[nH]cn1)C(=O)N1CCC[C@H]1C(=O)N[C@@H](CCCNC(=N)N)C(=O)N[C@H](CO)Cc1ccccc1
Ratio (Escherichia coli [1]): 32 | MIC (Escherichia coli [2]): 5 µM (≈ 11.6 µg/mL)

CC[C@H](C)[C@H](NC(=O)[C@H](Cc1ccc(O)cc1)NC(=O)[C@@H](NC(=O)[C@@H]1CCCN1C(=O)[C@H](CCCNC(=N)N)NC(=O)[C@H](CC(N)=O)NC(=O)[C@H](CC(N)=O)NC(=O)[C@H](CCCN)N=C(N(C)C)N(C)C)C(C)C)C(=O)N1CCC[C@H]1C(=O)N[C@@H](CCCNC(=N)N)C(=O)N1CCC[C@H]1C(=O)N[C@@H](CCCNC(=N)N)C(=O)N1CCC[C@H]1C(=O)N1CCC[C@H]1C(=O)N[C@@H](Cc1c[nH]cn1)C(=O)N1CCC[C@H]1C(=O)N[C@@H](CCCNC(=N)N)C(=O)N[C@@H](CO)Cc1ccccc1
Ratio (Escherichia coli [1]): 800 | MIC (Escherichia coli [2]): 40 µM (≈ 92.5 µg/mL)

CC[C@H](C)[C@H](NC(=O)[C@H](Cc1ccc(O)cc1)NC(=O)[C@@H](NC(=O)[C@@H]1CCCN1C(=O)[C@H](CCCNC(=N)N)NC(=O)[C@H](CC(N)=O)NC(=O)[C@H](CC(N)=O)NC(=O)[C@H](CCCN)N=C(N(C)C)N(C)C)C(C)C)C(=O)N1C[C@H](O)C[C@H]1C(=O)N[C@@H](CCCNC(=N)N)C(=O)N1CCC[C@H]1C(=O)N[C@@H](CCCNC(=N)N)C(=O)N1CCC[C@H]1C(=O)N1CCC[C@H]1C(=O)N[C@@H](Cc1c[nH]cn1)C(=O)N1CCC[C@H]1C(=O)N[C@@H](CCCNC(=N)N)C(=O)N[C@@H](CC(C)C)C(=O)O ({Orn(α-tetramethylguanidino)}-NNRPVYI[Hyp]RPRPPHPRL-OH)
Ratio (Escherichia coli [1]): 1 | MIC (Escherichia coli [2]): 0.08 µM (≈ 0.185 µg/mL)
